Data as given in patent US20260109690A1, “HDAC6 INHIBITORS AND METHOD OF THEIR USE” (Baerenkraft Therapeutics, LLC., priority 2024, published 2026).
Entries after “also recorded” stand apart in the source; their conditions may differ. Read-outs that look alike come from different tables or passages of the source.

Key:
[1] = system: Tg2576 AD Disease Mice; assay: Tg2576 study: open field test; format: in vivo; details: for Open Field Test time spent in Central zone / Open Field Test time spent in Peripheral zone: G3 Tg2576 mice
Description: Mice were weighed and randomized into groups. All the test formulations were freshly administered to respective animals of each group as per body weight. Basal behavior of the animals was recorded and analyzed in open field, Y-Maze, and EPM. Post basal behavior, animals were treated with compound I-16 for the duration of 3 months (i.e., from 6 months until 9 months). During the treatment duration, animals were subjected to different behavioral tests such as OFT, Y-maze, and EPM at 7, 8 and 9 months. At the end of experiments (i.e., at 9 months) animals were subjected to Morris water maze test.
Prior to the treatment initiation at […], animals were subjected to open field test. […] The total distance travelled, and velocity were quantified using an automated video tracking software Ethovision XT for the duration of 10 minutes. A camera, located directly above the centre of the open field, records the session. Locomotor activities were expressed as the total distance travelled and velocity.

[2] = system: acetyl-α-tubulin in SH-SY5Y neuroblastoma cells; assay: Western blot of acetylated alpha-tubulin in SH-SY5Y neuroblastoma cells; format: cell-based; details: 1 μM and 10 μM, 24 hours
Description: SH-SY5Y neuroblastoma cells were seeded at 1,000,000 cells/well of three 6-well plates and incubated for 24 hours. Cells were treated with 2 control and experimental HDAC6 inhibitors at 1 μM and 10 μM for 24-hours. Following treatment, cells were lysed, and proteins extracted for western blot. Proteins were separated by gel electrophoresis and transferred to nitrocellulose membranes. Membranes were blocked and probed with primary Abs overnight.
acetyl-α-tubulin (Lys40)(D20G3); Cell Signaling Technologies, #5335S
GAPDH; Millipore Sigma, #MAB374
Membranes were probed with secondary Abs for 1 hour and then the blots were imaged using the iBright 1500 (ThermoFisher)

[3] = Oral bioavailability and brain/CSF uptake study of compound I-8; format: in vivo, male Swiss albino mice
Description: Compound I-8 was evaluated for bioavailability, pharmacokinetics and brain/csf to plasma distribution in mouse plasma following oral and intravenous administration of compound I-8 in male Swiss albino mouse.
A total of 24 male Swiss albino mouse were allotted for the study, Animals were allotted to 2 groups containing 12 mice/group, on day of dosing all the animals were fasted 3 hours before dosing. The test formulation was administered as a single dose by intravenous and oral route via tail vein and oral gavage needle at a dose of 1 and 5 mg/kg with a dose volume of 5 and 10 mL/kg, respectively.
Approximately 0.1 mL of blood sample from each animal was collected via retro orbital at predetermined time points (3 animals/timepoint) in pre-labeled Eppendorf tubes containing anticoagulant. After blood collection at 2 h, 4 h and 6 h, CSF and whole brain was withdrawn, and brain tissue was homogenized as a terminal sampling. Blood samples were centrifuged at 10000 rpm for 5 min under refrigeration (2-4° C.) within 0.5 h to obtain plasma. The separated plasma samples were collected in pre labeled tubes within 60 min of separation and stored at −20° C. up to 24 h. Post 24 h sample collection, all plasma samples were transferred to deep freezer custodian to store below or at −70° C. until shipment.
Brain tissues were blotted and dried and then transferred to 15 mL falcon tubes. Initially all tissue samples were stored at −20±3° C. Later all brain tissue samples were homogenized with PBS at 1:4 ratio and the Brain homogenate was transferred to deep freezer (−70±10° C.) and stored until bioanalysis.
Mouse plasma, CSF and Brain homogenate concentrations were analyzed to quantify compound I-8 using a fit-for purpose LC-MS/MS method with LLOQ of 0.98 ng/mL. The PK parameters were evaluated using Phoenix WinNonlin® Ent-Version 8.3 by non-compartmental analysis.

[4] = target: HDAC3 (Homo sapiens, UniProt O15379); assay: HDAC selectivity panel: HDAC3; format: biochemical
[5] = ALS mouse model: body weight; format: in vivo; details: SOD1-G93A mice, in g (unit assumed)
Description: Mice were weighed and randomized into different groups and age matched control groups were kept as such. Test compound I-8 was freshly formulated and administered to the respective animals of each group as per body weight. Animals in G1 and G2 were administered with vehicle. G3 and G4 group animals were dosed with compound I-8 at the dose of 15 mg/kg and 30 mg/kg respectively, per orally; Q.D. G4 animals were administered 30 mg/kg dose until day 34 and 50 mg/kg from day 35 onwards.
The body weight of each animal was recorded at the time of randomization and once in 2 days during the study period.

[6] = 50 mg/kg then 80 mg/kg from day 36 p.o., 8th months
[7] = 50 mg/kg then 80 mg/kg from day 36 p.o., 9th months
[8] = 6th months (Basal, before treatment)
[9] = male, Swiss albino, mouse, plasma, G1, intravenous 1 mg/kg
[10] = male, Swiss albino, mouse, plasma, G2, oral 5 mg/kg
[11] = male, Swiss albino, G1, intravenous 1 mg/kg, mouse plasma
[12] = male, Swiss albino, G2, oral 5 mg/kg, mouse plasma

Sequence of HDAC3 (O15379 whole entry, species assumed): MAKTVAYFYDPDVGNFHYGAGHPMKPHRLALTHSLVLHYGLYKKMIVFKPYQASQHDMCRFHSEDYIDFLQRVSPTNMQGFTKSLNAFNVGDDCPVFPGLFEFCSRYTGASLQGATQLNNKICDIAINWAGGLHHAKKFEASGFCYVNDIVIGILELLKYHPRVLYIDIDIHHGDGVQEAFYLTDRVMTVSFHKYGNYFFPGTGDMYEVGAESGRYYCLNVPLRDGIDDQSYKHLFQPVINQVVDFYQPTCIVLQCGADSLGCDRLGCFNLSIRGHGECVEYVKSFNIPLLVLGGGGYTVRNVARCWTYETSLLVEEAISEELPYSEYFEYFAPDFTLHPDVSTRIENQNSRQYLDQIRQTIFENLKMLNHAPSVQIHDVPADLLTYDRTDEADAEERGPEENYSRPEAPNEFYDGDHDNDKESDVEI
Sequence of HDAC3 (Q9Y618 395-489 partner limits assumed, species assumed): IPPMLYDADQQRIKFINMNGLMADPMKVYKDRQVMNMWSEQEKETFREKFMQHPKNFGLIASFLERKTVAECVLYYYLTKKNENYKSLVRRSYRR

## C[C@@H]1CN(Cc2ccc(Nc3nccc(-c4ccc(C(=O)NO)cc4)n3)cc2F)CCO1 [Compound I-16, (R)-4-(2-((3-fluoro-4-((2-methylmorpholino)methyl)phenyl)amino)pyrimidin-4-yl)-N-hydroxybenzamide]
[1]; G3 Tg2576 AD disease mice, 50 mg/kg
  Open Field Test: total distance, velocity, time spent in central and peripheral zone compared to G2 (Tg2576 + vehicle): did not show any significant difference
[1]; 50 mg/kg p.o., 7th months
  Open Field Test time spent in Central zone: 25.12 ± 12.39
  Open Field Test time spent in Peripheral zone: 574.88 ± 12.39
[1]; [6]
  Open Field Test time spent in Central zone: 79.09 ± 28.86
  Open Field Test time spent in Peripheral zone: 520.91 ± 28.86
[1]; [7]
  Open Field Test time spent in Central zone: 61.69 ± 12.36
  Open Field Test time spent in Peripheral zone: 538.31 ± 12.36
[1]; [8]
  Open Field Test time spent in Central zone: 57.11 ± 12.95
  Open Field Test time spent in Peripheral zone: 537.81 ± 12.63

## CC1CN(Cc2ccc(Nc3nccc(-c4ccc(C(=O)NO)cc4)n3)cc2F)CCO1 (racemic) [Compound I-8, 4-(2-((3-fluoro-4-((2-methylmorpholino)methyl)phenyl)amino)pyrimidin-4-yl)-N-hydroxybenzamide]
[2]
  acetylation of α-tubulin (Western blot): induce acetylation of α-tubulin in SH-SY5Y neuroblastoma cells in a dose-dependent manner; also recorded: induces acetylation α-tubulin
[3]; intravenous 1 mg/kg
  Steady state and central compartment volume of distribution: very high
[3]; male, Swiss albino, mouse, plasma, iv, 1 mg/kg, G1, intravenous 1 mg/kg
  clearance: ~328 mL/min/kg
[3]; male, Swiss albino, mouse, plasma, iv, 1 mg/kg, G1, intravenous 1 mg/kg, read-out: Vd
  Vd: 171 L/kg
[3]; male, Swiss albino, mouse, plasma, iv, 1 mg/kg, G1, intravenous 1 mg/kg, read-out: Vss
  Vd: 188 L/kg
[3]; [9]
  MRT: 3.28 h
  half-life: 6.03 h
[3]; [10]
  MRT: 4.75 h
  Tmax: 8 h
[3]; male, Swiss albino, mouse, plasma, G2, oral 5 mg/kg vs intravenous 1 mg/kg, read-out: % F (oral bioavailability)
  bioavailability: 53%
[3]; [11]
  AUC(0-inf): 50.8 ng·h/mL
  AUC(0-t): 27.1 ng·h/mL
  C0: 27.3 ng/mL
[3]; [12]
  AUC(0-t): 72.3 ng·h/mL
  Cmax: 18.3 ng/mL
[3]; oral 5 mg/kg
  lag phase in absorption: no lag phase in absorption
  systemic availability: moderate to high systemic availability
[4]
  IC50: 990 nM
[5]; G3 15 mg/kg p.o. QD, Day 1
  Body weight: 25.99 ± 0.73
[5]; G3 15 mg/kg p.o. QD, Day 7
  Body weight: 25.97 ± 0.70
[5]; G3 15 mg/kg p.o. QD, Day 13
  Body weight: 26.54 ± 0.52
[5]; G3 15 mg/kg p.o. QD, Day 21
  Body weight: 26.81 ± 0.45
[5]; G3 15 mg/kg p.o. QD, Day 27
  Body weight: 26.51 ± 0.46
[5]; G3 15 mg/kg p.o. QD, Day 35
  Body weight: 26.76 ± 0.43
[5]; G3 15 mg/kg p.o. QD, Day 43
  Body weight: 26.60 ± 0.50
[5]; G3 15 mg/kg p.o. QD, Day 49
  Body weight: 25.47 ± 0.62
[5]; G3 15 mg/kg p.o. QD, Day 52
  Body weight: 24.52 ± 0.68
[5]; G4 30 mg/kg (50 mg/kg from day 34) p.o. QD, Day 1
  Body weight: 25.66 ± 0.48
[5]; G4 30 mg/kg (50 mg/kg from day 34) p.o. QD, Day 7
  Body weight: 25.64 ± 0.40
[5]; G4 30 mg/kg (50 mg/kg from day 34) p.o. QD, Day 13
  Body weight: 26.14 ± 0.52
[5]; G4 30 mg/kg (50 mg/kg from day 34) p.o. QD, Day 21
  Body weight: 27.53 ± 0.60
[5]; G4 30 mg/kg (50 mg/kg from day 34) p.o. QD, Day 27
  Body weight: 27.29 ± 0.52
[5]; G4 30 mg/kg (50 mg/kg from day 34) p.o. QD, Day 35
  Body weight: 26.55 ± 0.57
[5]; G4 30 mg/kg (50 mg/kg from day 34) p.o. QD, Day 43
  Body weight: 26.04 ± 0.60
[5]; G4 30 mg/kg (50 mg/kg from day 34) p.o. QD, Day 49
  Body weight: 24.30 ± 0.96
[5]; G4 30 mg/kg (50 mg/kg from day 34) p.o. QD, Day 52 (n = 6-8)
  Body weight: 24.75 ± 0.45
